Assay results: article PMC5910208 (ACS chemical biology, 2018)

Key:
LaPhzM = biological target: T1, LaPhzM (Lysobacter antibioticus, UniProt A0A172J1V3); assay: X-ray crystal structure, […] Å; format: binding; settings: crystallised with SAM added; SAH found in cofactor site
T1 sequence (A0A172J1V3 1-341): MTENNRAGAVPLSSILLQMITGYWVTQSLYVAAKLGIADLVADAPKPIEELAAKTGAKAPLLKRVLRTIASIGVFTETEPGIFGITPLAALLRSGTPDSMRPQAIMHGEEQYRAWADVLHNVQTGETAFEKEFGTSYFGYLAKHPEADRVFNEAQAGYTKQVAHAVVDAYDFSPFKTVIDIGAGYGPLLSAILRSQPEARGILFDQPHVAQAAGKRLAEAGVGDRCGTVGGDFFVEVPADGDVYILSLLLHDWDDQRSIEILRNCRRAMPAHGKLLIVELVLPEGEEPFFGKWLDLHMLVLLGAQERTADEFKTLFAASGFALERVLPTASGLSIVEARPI

LaPhzNO1 = biological target: T2, LaPhzNO1 (Lysobacter antibioticus, UniProt A0A172J1R7); assay: HPLC / LC-MS product analysis, coupled with LaPhzS making DHP from PDC; format: biochemical; settings: NADPH, FAD; phosphate 100 mM pH 7.0, RT
T2 sequence (A0A172J1R7 1-541): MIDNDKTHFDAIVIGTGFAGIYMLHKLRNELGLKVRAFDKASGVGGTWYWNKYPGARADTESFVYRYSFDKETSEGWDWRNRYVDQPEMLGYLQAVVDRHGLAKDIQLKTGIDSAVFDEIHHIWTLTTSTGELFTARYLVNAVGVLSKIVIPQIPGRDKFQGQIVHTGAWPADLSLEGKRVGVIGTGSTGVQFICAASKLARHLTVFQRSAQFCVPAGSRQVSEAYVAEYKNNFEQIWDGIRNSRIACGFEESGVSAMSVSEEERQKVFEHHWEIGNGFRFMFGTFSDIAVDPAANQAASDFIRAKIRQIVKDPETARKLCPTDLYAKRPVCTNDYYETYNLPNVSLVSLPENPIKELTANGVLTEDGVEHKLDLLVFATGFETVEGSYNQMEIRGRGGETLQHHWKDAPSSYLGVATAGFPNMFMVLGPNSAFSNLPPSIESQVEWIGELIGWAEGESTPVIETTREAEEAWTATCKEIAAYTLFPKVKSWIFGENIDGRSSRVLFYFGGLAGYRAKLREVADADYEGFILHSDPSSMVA

[1] = substrate: COc1cccc2c1nc1cccc(O)c1[n+]2[O-]; assay: initial velocity by HPLC of SAH formed, Michaelis-Menten fit; format: biochemical, Lysobacter antibioticus; settings: co-substrate SAM, Tris 50 mM, pH 7.8, RT

## Nc1ncnc2c1ncn2[C@@H]1O[C@H](CSCC[C@H](N)C(=O)O)[C@@H](O)[C@H]1O [S-adenosyl-L-homocysteine]
LaPhzM
  X-ray crystal structure, 1.42 Å: electron density around the cofactor binding site clearly indicates an S-adenosyl-L-homocysteine (SAH), instead of a SAM

## Oc1cccc2nc3c(O)cccc3nc12 [compound 7, 1,6-dihydroxyphenazine]
LaPhzNO1
  HPLC / LC-MS product analysis, coupled with LaPhzS making DHP from PDC: When the second enzyme LaPhzNO1 and another cofactor NADPH were added in the reaction mixture

B1: LaPhzM (Lysobacter antibioticus) (protein)
chain: MTENNRAGAVPLSSILLQMITGYWVTQSLYVAAKLGIADLVADAPKPIEELAAKTGAKAPLLKRVLRTIASIGVFTETEPGIFGITPLAALLRSGTPDSMRPQAIMHGEEQYRAWADVLHNVQTGETAFEKEFGTSYFGYLAKHPEADRVFNEAQAGYTKQVAHAVVDAYDFSPFKTVIDIGAGYGPLLSAILRSQPEARGILFDQPHVAQAAGKRLAEAGVGDRCGTVGGDFFVEVPADGDVYILSLLLHDWDDQRSIEILRNCRRAMPAHGKLLIVELVLPEGEEPFFGKWLDLHMLVLLGAQERTADEFKTLFAASGFALERVLPTASGLSIVEARPI
[1]
  Km: 33.6 µM
  kcat: 0.01 s⁻¹
